| Structure (SMILES) | melting point [°C] |
| --- | --- |
| CN(C)C=Cc1c(N)cc([N+](=O)[O-])cc1[N+](=O)[O-] | 105 to 107 |
| CCCOc1ccccc1-c1nc2ccccc2c(=O)[nH]1 | 88 to 89 |
| CS(=O)(=O)Nc1ccc(CCOS(C)(=O)=O)cc1 | 134 to 136 |
| CCC(=O)Oc1cccc2c1C(=O)c1c(OC(=O)CC)cc(-c3nnn[nH]3)cc1C2=O | 176 to 178 |
| CCOC(=O)CNc1ccc2ccccc2c1 | 83 to 84 |
| COC(=O)c1ccc2c(Br)n[nH]c2c1 | 186 to 189 |
| CN1CCC2(CC1)CN(c1ccccc1[N+](=O)[O-])c1cc(Cl)ccc12 | 130 to 131 |
| COc1ccc(C(=O)c2ccco2)cc1OC | 112 to 114 |
| CC1(c2ccc(-c3ccccc3)cc2)CC(=O)NN1 (stereo not drawn) | 191 to 192 |
| O=C(O)Cc1ccc(Cn2cc(C(=O)C(=O)NC3=CC(=O)OC3)c3ccccc32)cc1 | > 270 |
| CCN(CC)CCOc1ccc2c(C(=O)NC(=N)N)cccc2c1 | 168 to 169 |
| O=C(CC(=O)C(F)(F)F)Nc1cc(-c2ccsc2)n[nH]1 | 251 to 253 |
| CCCSc1nc2ccc(Br)cc2c(=O)n1CCC | 65 to 67 |
| Cc1cc(F)c(NS(=O)(=O)c2ccccc2)cc1NS(=O)(=O)c1ccccc1 | 146 |
| Cc1ccc(CC(CC(=O)Oc2ccc([N+](=O)[O-])cc2)C(=O)Oc2ccc([N+](=O)[O-])cc2)cc1 (stereo not drawn) | 97 to 98 |
| ONC=Nc1ccc(N2CCSCC2)c(Cl)c1 | 137 to 138 |
| NC(=O)c1cc(-c2ccnc(Nc3cccc(C(F)(F)F)c3)n2)ccn1 | 240 to 242 |
| C#CCn1c(=O)n(C)c(=O)c2c1nc(Cl)n2Cc1ccccc1 | 169 to 172 |
| Nc1cc2nc(-c3ccccc3)nn2cc1F | > 250 |
| CCCC1(CCC)C(=O)N(C(C)(C)C)CC(C)(C)N1OC(C)(C)C#N | 85 to 87 |
| CC(c1cccc(NC(=O)NC2N=C(c3ccccc3F)c3ccccc3N(CC(=O)N3CC4CCC(CC4)C3)C2=O)c1)S(=O)(=O)O (racemic) | > 250 |
| O=C1N(Cc2ccc(C(F)(F)F)o2)c2ccccc2C12COc1cc(OC(F)(F)F)ccc12 (stereo not drawn) | 78 to 80 |
| ON=c1cc(-c2cnccn2)ss1 | 262 |

| Structure (SMILES) | melting point [°C] |
| --- | --- |
| CCCC1=C([N+](=O)[O-])C(c2ccccc2[N+](=O)[O-])c2c[nH]nc2N1 (stereo not drawn) | 204 |
| O=C(N1CC([N+](=O)[O-])([N+](=O)[O-])C1)C(F)(F)F | 70 to 71 |
| Cn1nnnc1SCCCC(=O)c1ccccc1 | 57.5 to 58 |
| O=c1[nH]cc(Br)cc1Nc1ccncn1 | 150 to 151 |
| O=c1[nH]cnc2c1cnn2CC(O)c1ccccc1 (stereo not drawn) | 270 to 271 |
| CNS(=O)(=O)OCC(=O)N(c1c(C)ccc2ccccc12)C1CCOC1=O (stereo not drawn) | 190 to 194 |
| c1ccc2nc(C3CCCS3)ccc2c1 (stereo not drawn) | 63 |
| CC(=O)Nc1ccc(NCCNS(C)(=O)=O)cc1 | 130 |
| O=C1Cn2c(c(Br)c3ccccc32)-c2ccccc2N1 | 247 to 249 |
| O=S1CCN(c2nc(N3CCNCC3)cc3c(Cl)cccc23)CC1 | 215 to 217 |
| COc1cc2c(c(C(=O)c3ccccc3)c1)NC(=O)C2 | 154 |
| COc1ccc2c(c1)C(=O)c1c-2c(N2CCN(CC3CO3)CC2)nc2ccccc12 (stereo not drawn) | 138 to 139 |
| COc1ccc(ONc2ccccc2)cc1 | 70 to 73 |
| CC(C)Cc1ccc(C(C)C(=O)NCCN(O)C(N)=O)cc1 (stereo not drawn) | 150 to 152 |
| Cc1csc2nc(-c3ccc(C(=O)O)cc3)nc(NCc3ccccc3)c12 | 270 |
| CN(C)CCCN=C1CC(c2ccc(Cl)cc2Cl)Cc2[nH]c3ccc(Cl)cc3c(=O)c21 (stereo not drawn) | 168 to 170 |
| Cc1nc2cccc(C(F)(F)F)c2c(=O)n1C1CCC(=O)NC1=O (stereo not drawn) | 268 to 270 |
| Cc1c(F)cccc1N1CC(C(=O)O)CC1=O (stereo not drawn) | 155 to 160 |
| COc1cc(CC(N)=O)cc(OC(F)F)c1OC | 104 to 105 |
| COc1cc2ncnc(N3c4ccccc4CC3CO)c2cc1OC (stereo not drawn) | 146 to 147 |
| N#Cc1c(-c2oc3ccccc3c2Cl)[nH]c(Cl)c1Cl | 258 to 260 |
| Cc1cc(Cl)c2c(c1)C=C(/C=C/C=C/C=C/C(=O)O)CO2 | 248 to 250 |
| c1ccc(N2CCOCC2)c(N=C2NCCN2)c1 | 185 to 186 |

| Structure (SMILES) | melting point [°C] |
| --- | --- |
| O=C(Nc1cccnn1)N1CCN(c2nccc(-c3cc(F)cc(F)c3)n2)CC1 | 270 to 271 |
| O=C(O)c1cn(Cc2c(F)cccc2Cl)nn1 | 274 to 276 |
| O=C(O)CCCCc1cc2nc(Cl)ccc2n1S(=O)(=O)c1ccccc1 | 113 |
| Cn1c([N+](=O)[O-])cnc1-c1nc2ccccc2[nH]1 | 257 |
| Cc1cc(Nc2c(C#N)cnc3cc(-c4csc(C5OCCO5)c4)ccc23)ccc1OCc1ccccn1 | 194 to 196 |
| O=C(NCCn1c2ccccc2c(=O)c2ccccc21)OCc1ccccc1 | 224 to 226 |
| Cn1c(-c2cccnc2)cc(=O)n(C)c1=O | 120 to 122 |
| CC(=O)N1CCc2sc(C(=O)CCCN3CCC(c4noc5cc(F)ccc45)CC3)cc2C1 | 235 |
| CC(C)(C)COc1ccc(-n2cc(C(=O)O)cn2)cc1C#N | 199 to 200 |
| COC(=O)c1ccccc1S(=O)(=O)NC(=O)Nc1nc(N)cc(Cl)n1 | 170 to 172 |
| COc1cc(OC)c(-c2cccs2)cc1/C=C/C(=O)c1ccc(S(=O)(=O)Nc2ccc(C(F)(F)F)cn2)cc1 | 228 to 229 |
| Cc1cccc(C(=O)Nc2cccc(C(F)(F)F)c2)c1NCc1ccncc1 | 94 to 98 |
| O=C1CCC(N2Cc3cc(CNC(=O)N4CCOCC4)ccc3C2=O)C(=O)N1 (stereo not drawn) | 208 to 210 |
| CCCCCC1CCc2c(c(F)c(F)c3oc(C)cc23)O1 (stereo not drawn) | 61 |
| COC(=O)c1ccc(-c2nc(-c3ccccc3)co2)cc1 | 175 to 176 |
| CCOC(=O)C1=C(C)NC(C)=C(C(=O)OCC)C1c1ccc(Br)cc1 | 164 to 165 |
| CC(Oc1ccccc1)C(=O)NCCO[N+](=O)[O-] (stereo not drawn) | 74 to 75 |
| CCCc1nc2c(N)nc3cc(Br)ccc3c2s1 | 160 to 163 |
| Cc1cc(C)c(CS(=O)c2ccccc2)c(-c2ccc(F)c(C)c2)c1 (stereo not drawn) | 75 to 85 |
| Brc1ccc(OCCCCCCN2CCN(c3nccs3)CC2)cc1 | 66 to 68 |
| O=C1c2ccccc2C(=O)N1CSc1ccncc1 | 133 to 134 |
| COCc1c(C=NO)ncc2[nH]c3cccc(Cc4ccc(Cl)cc4)c3c12 | 224 to 228 |

More lines, now with the values ahead:

| melting point [°C] | Structure (SMILES) |
| --- | --- |
| 198 to 200 | COc1cc(OC)c2c(=O)c(OCCCOc3ccc(C(C)=C4SC(=O)NC4=O)cc3)c(-c3ccc(OC)c(OC)c3)oc2c1 |
| 156 to 157 | O=C(Oc1ccccc1)c1cc2cccc(O)c2[nH]1 |
| 87.5 to 88.5 | CCOC(=O)c1nc2sc(C(C)C)cc2c(=O)o1 |
| 282 to 284 | COc1cc2nc(N)nc(-c3cc(Br)c(C)cc3Br)c2cc1OC |
| 260 | CCCC(=O)Nc1n[nH]c2cc(Cl)c(-c3ccncc3)cc12 |
| 74 to 75 | O=S(=O)(Nc1cccc(CCOCc2ccc(-c3ccc(Cl)c(Cl)c3)cc2)c1)C(F)(F)F |
| 56 to 57 | Cc1ccc(Cn2ccc3cc(Br)ccc32)cc1 |
| 93 | CC(C)(Cl)C(=O)c1ccc(C(Br)c2ccc(C(=O)C(C)(C)Cl)cc2)cc1 |
| 178 to 181 | CCc1ccc2[nH]c(=O)oc(=O)c2c1 |
| 155 to 156 | CONC(=O)C(Oc1cc(OCc2ccsc2)ccc1C#N)c1ccccc1C (racemic) |
| 203 to 205 | C/C(=C\c1ccc(C(=O)O)cc1)c1ccc2c(c1)N(C)CCN2C |
| 171 to 172 | CCOc1c(OC)cc(C(=O)N2CCN(C(=O)C3=Cc4cc(OC)c(OC)cc4CCC3)CC2)cc1OC |
| 210 to 211 | Cc1ccc(Oc2cccc(-c3nnc(Nc4ccc(Cl)c(Cl)c4)s3)c2)cc1 |
| 222 to 224 | CNC(=O)c1cc(Oc2ccc(NC(=O)Nc3ccc4c(c3)C(F)(F)OC(F)(F)O4)c(S(C)(=O)=O)c2)ccn1 |
| 105 to 107 | CC1(CCl)CC(SCc2c(C(F)(F)F)n[nH]c2Cl)=NO1 (stereo not drawn) |
| 153 to 155 | O=C(O)C=Cc1c(-c2ccccc2)nn2ccccc12 |
| 101 to 103 | CCCc1cc2cccc(C(=O)OCOC(=O)C(C)(C)C)c2n1Cc1ccc(-c2ccccc2-c2nnn[nH]2)cc1 |
| 186 to 188 | NC[C@@H]1CC[C@H](C(=O)O)C1 (relative stereo) |

| melting point [°C] | Structure (SMILES) |
| --- | --- |
| 73 to 74 | CC(C)[C@@H]1N(C(=O)OCc2ccccc2)CO[C@]1(O)C(F)(F)F |
| 111 to 113 | CN=C(N)Nc1nc(-c2cccc(C(=O)NC)c2)cs1 |
| 107 to 109 | CC(C)C(NC(=O)C(C)(C)C)C(C)C |
| 126 to 129 | COc1cccc([C@H]2O[C@H](CC(=O)NCCc3occc3C(=O)O)C(=O)N(CC(C)(C)CO)c3ccc(Cl)cc32)c1OC |
| 119 to 121 | CC1(C)C(=NOCc2ccccc2)C(c2ccccc2)=C1c1ccc(S(C)(=O)=O)cc1 |
| 260 to 268 | CS(=O)(=O)c1ccc(/C=C/c2cc(/C=C/c3ccc4cc[nH]c4c3)n[nH]2)cc1 |
| 165 to 168 | CSC1C(=O)Nc2c(C(=O)c3ccc(F)cc3)cccc21 (stereo not drawn) |
| 94 to 95 | Brc1cncc2nc(SCc3ccccc3)nn12 |
| 120 to 122 | NC(=S)NN=C(CCCCl)c1cccs1 |
| 123 to 125 | O=C(Nc1cc(F)cc(F)c1)Oc1ccccc1 |
| 131 to 132 | O=C(CCCCl)c1ccc2c(c1)Cc1cc(C(=O)CCCCl)ccc1O2 |
| 150 to 152 | N#Cc1cc([N+](=O)[O-])ccc1Oc1ccc(Oc2ccccc2)cc1 |
| 162 | Cc1c(C)c(C=O)c2ncccc2c1C |
| 41 to 43 | CC(C)(C)OCC(O)CN (stereo not drawn) |
| 116 to 117 | O=S(=O)(c1ncc(Cl)cn1)c1cccs1 |
| 225 to 226 | O=C(c1cccs1)c1cnn2c(-c3csc([N+](=O)[O-])c3)ccnc12 |
| 155 to 157 | COc1ccnc(CSc2nc3cc4c(cc3[nH]2)OCO4)c1OC |

From a melting point compilation (Tetko et al.; mined from patent text by program, amines drawn as free bases though some values may be those of a salt)
